Assay type in all cases: physicochemical
A short description of data set [1]: Thermo-gravimetric analysis (TGA), decomposition onset. Particulars: heated at 10° C./min. The protocol:
Thermo-gravimetric analysis (TGA) data were collected on a TA Instruments Discovery TGA, equipped with a 25 position auto-sampler. The instrument was temperature calibrated using certified alumel and nickel. Typically, 3-10 mg of each sample was loaded onto a pre-tared aluminium pan and heated at 10° C./min from ambient temperature to 350° C. A nitrogen purge at 25 mL/min was maintained over the sample. The instrument control and data analysis software was TRIOS v3.2.0.3877.

The nature of data set [2]: Competitive slurry experiments of Form 1 and Form 2 (thermodynamic stability). The note with it: temperature range investigated (5° C., 25° C., 50° C.). The protocol: The melt of Form 1 of compound 5 was determined by DSC to be at 129.0° C. with an enthalpy of −46 J/g. A melt endotherm was not determined for Form 2 as it transforms to Form 1 upon heating at different rates. […] These experiments were performed in IPA, ethanol and toluene. To conduct these experiments a solid mixture of Forms 1 and 2 (<18 mg per sample) was suspended in the corresponding saturated solution of compound 5 and stirred at the desired temperature. Saturated solutions of compound 5 were prepared at 50° C. by dissolving 40 mg, 60 mg and 200 mg of sample in 1.4 mL of IPA, 0.8 mL of ethanol and 0.8 mL of toluene, respectively. The slurries were filtered, air-dried and analyzed by XRPD after stirring for up to 10 days at the desired temperature. […] All the experiments except for that performed in IPA at 5° C. gave pure Form 1.

The nature of data set [3]: Gravimetric/dynamic vapor sorption (GVS/DVS) moisture sorption isotherm. The note with it: for GVS hysteresis: 0-90% RH range; for moisture uptake by GVS: at 90% RH; for GVS water uptake: over 0-90% RH range, 25° C.; for XRPD post GVS: sample re-analysed by XRPD after isotherm. Here is the method:
Gravimetric Vapor Sorption (GVS) isotherms were obtained using a SMS DVS Intrinsic moisture sorption analyser, controlled by DVS Intrinsic Control software v1.0.1.2 (or v 1.0.1.3). The sample temperature was maintained at 25° C. by the instrument controls. The humidity was controlled by mixing streams of dry and wet nitrogen, with a total flow rate of 200 mL/min The relative humidity was measured by a calibrated Rotronic probe (dynamic range of 1.0-100% RH), located near the sample. The weight change, (mass relaxation) of the sample as a function of % RH was constantly monitored by the microbalance (accuracy ±0.005 mg). Typically. 10-15 mg of sample was placed in a tared mesh stainless steel basket under ambient conditions. The sample was loaded and unloaded at 40% RH and 25° C. (typical room conditions). A moisture sorption isotherm was performed as outlined below (2 scans giving 1 complete cycle). The standard isotherm was performed at 25° C. at 10% RH intervals over a 0-90% RH range. Data analysis was undertaken in Microsoft Excel using DVS Analysis Suite v6.2 (or 6.1 or 6.0). [table] The sample was recovered after completion of the isotherm and re-analysed by XRPD.

The nature of data set [4]: XRPD stability after 7 days storage at elevated humidity. The protocol:
X-Ray Powder Diffraction patterns were collected on a Bruker AXS C2 GADDS diffractometer using Cu Kα radiation (40 kV, 40 mA), automated XYZ stage, laser video microscope for auto-sample positioning and a HiStar 2-dimensional area detector. X-ray optics consists of a single Göbel multilayer mirror coupled with a pinhole collimator of 0.3 mm. A weekly performance check is carried out using a certified standard NIST 1976 Corundum (flat plate). The beam divergence, i.e. the effective size of the X-ray beam on the sample, was approximately 4 mm. A Θ-Θ continuous scan mode was employed with a sample—detector distance of 20 cm which gives an effective […] of 3.2°-29.7°. Typically the sample would be exposed to the X-ray beam for 120 seconds. The software used for data collection was GADDS for XP/2000 4.1.43 and the data were analysed and presented using Diffrac Plus EVA v13.0.0.2 or v15.0.0.0. Samples run under ambient conditions were prepared as flat plate specimens using powder as received without grinding. Approximately 1-2 mg of the sample was lightly pressed on a glass slide to obtain a flat surface. Samples run under non-ambient conditions were mounted on a silicon wafer with heat-conducting compound. The sample was then heated to the appropriate temperature at 30° C./min and subsequently held isothermally for 1 minute before data collection was initiated. X-Ray Powder Diffraction patterns were also collected on a Bruker D8 diffractometer using Cu Kα radiation (40 kV, 40 mA), θ-2θ goniometer, and divergence of V4 and receiving slits, a Ge monochromator and a Lynxeye detector. The instrument is performance checked using a certified Corundum standard (NIST 1976). The software used for data collection was Diffrac Plus XRD Commander v2.6.1 and the data were analysed and presented using Diffrac Plus EVA v15.0.0.0. Samples were run under ambient conditions as flat plate specimens using powder as received. The sample was gently packed into a cavity cut into polished, zero-background (510) silicon wafer. The sample was rotated in its own plane during analysis. The details of the data collection are: Angular range: 2 to 42° 2 θ; Step size: 0.05° 2θ; Collection time: 0.5 s/step.

Data set [5] can be described thus: Variable temperature XRPD (VT-XRPD), polymorph conversion. Particulars: upon heating. The protocol: X-Ray Powder Diffraction patterns were collected on a Bruker AXS C2 GADDS diffractometer using Cu Kα radiation (40 kV, 40 mA), automated XYZ stage, laser video microscope for auto-sample positioning and a HiStar 2-dimensional area detector. X-ray optics consists of a single Göbel multilayer mirror coupled with a pinhole collimator of 0.3 mm. A weekly performance check is carried out using a certified standard NIST 1976 Corundum (flat plate). The beam divergence, i.e. the effective size of the X-ray beam on the sample, was approximately 4 mm. A Θ-Θ continuous scan mode was employed with a sample—detector distance of 20 cm which gives an effective […] of 3.2°-29.7°. Typically the sample would be exposed to the X-ray beam for 120 seconds. The software used for data collection was GADDS for XP/2000 4.1.43 and the data were analysed and presented using Diffrac Plus EVA v13.0.0.2 or v15.0.0.0. Samples run under ambient conditions were prepared as flat plate specimens using powder as received without grinding. Approximately 1-2 mg of the sample was lightly pressed on a glass slide to obtain a flat surface. Samples run under non-ambient conditions were mounted on a silicon wafer with heat-conducting compound. The sample was then heated to the appropriate temperature at 30° C./min and subsequently held isothermally for 1 minute before data collection was initiated. […]

The structures appear in SMILES notation.

Regarding `N#Cc1ccc(COc2ccc(C#Cc3ccc(C(F)(F)[C@](O)(Cn4cnnn4)c4ccc(F)cc4F)nc3)cc2)cc1` [Compound 5 (Anhydrous Form 1)], in data set [1], the TGA decomposition onset result was “Decomposition onset at ~200 °C”. In addition, in data set [2], the “thermodynamic stability of the pair Form 1/Form 2” value is on record as “thermodynamically stable form”. Also, in data set [3], the GVS hysteresis entry is “(slight hysteresis observed)”, the “moisture uptake by GVS” value is on record as around 1.3%, the GVS water uptake entry is recorded as “ca. 1.3% water uptake over” and the “XRPD post GVS” value is on record as “unchanged”. In addition, the “XRPD stability post 7 days” value in data set [4] (25° C. & 96% RH) was “Unchanged by XRPD”. In addition, the “XRPD stability post 7 days” value in data set [4] (40° C. & 75% RH) is “Unchanged by XRPD”. For the same compound, the “stability after 7 days storage at elevated humidity conditions” value (“stability after 7 days storage” below) in data set [4] was “stable”.
Regarding `N#Cc1ccc(COc2ccc(C#Cc3ccc(C(F)(F)[C@](O)(Cn4cnnn4)c4ccc(F)cc4F)nc3)cc2)cc1` [Compound 5 (Anhydrous Form 2)], in data set [1], the TGA decomposition onset entry was “Decomposition onset at ~200 °C”. For the same compound, in data set [3], the GVS hysteresis entry was “(no hysteresis observed)”, the “moisture uptake by GVS” value is listed as around 0.7%, the GVS water uptake entry is reported as “ca. 0.7% water uptake over” and the “XRPD post GVS” value was “unchanged”. Also, the “VT-XRPD: conversion to Form 1 starts at” value in data set [5] is “at 105 °C”. For the same compound, the “XRPD stability post 7 days” value in data set [4] (25° C. & 96% RH) is reported as “Unchanged by XRPD”. Further, the “XRPD stability post 7 days” value in data set [4] (40° C. & 75% RH) is reported as “Unchanged by XRPD”. Moreover, the “stability after 7 days storage” value in data set [4] is given as “remained stable”.
For the compound `N#Cc1ccc(COc2ccc(C#Cc3ccc(C(F)(F)[C@](O)(Cn4cnnn4)c4ccc(F)cc4F)nc3)cc2)cc1` [Compound 14], in data set [1], the TGA decomposition onset entry is “Decomposition onset at ~300 °C”. In addition, in data set [3], the GVS hysteresis entry was “(no hysteresis observed)”, the “moisture uptake by GVS” value is reported as around 1.6%, the GVS water uptake entry is listed as “ca. 1.6% water uptake over” and the “XRPD post GVS” value was “unchanged”. Also, the “XRPD stability post 7 days” value in data set [4] (25° C. & 96% RH) is “Unchanged by XRPD”. For the same compound, the “XRPD stability post 7 days” value in data set [4] (40° C. & 75% RH) is listed as “Unchanged by XRPD”. In data set [4], the “stability after 7 days storage” value was “stable”.

The values above are taken from patent US10308632B2, “Antifungal compounds and processes for making” (VPS-3, Inc., priority 2015, dated 2019).
